These results are taken from article PMC8617681 (Pharmaceuticals, 2021).

Entries after “also recorded” stand apart in the source; their conditions may differ.

One data set addresses T1, human OATP1A2 (Homo sapiens, UniProt P46721).
T1 construct: Werner Siegmund and Dr. Markus Keiser (University of Greifswald); host or cells: HEK293
T1 sequence (P46721 1-670): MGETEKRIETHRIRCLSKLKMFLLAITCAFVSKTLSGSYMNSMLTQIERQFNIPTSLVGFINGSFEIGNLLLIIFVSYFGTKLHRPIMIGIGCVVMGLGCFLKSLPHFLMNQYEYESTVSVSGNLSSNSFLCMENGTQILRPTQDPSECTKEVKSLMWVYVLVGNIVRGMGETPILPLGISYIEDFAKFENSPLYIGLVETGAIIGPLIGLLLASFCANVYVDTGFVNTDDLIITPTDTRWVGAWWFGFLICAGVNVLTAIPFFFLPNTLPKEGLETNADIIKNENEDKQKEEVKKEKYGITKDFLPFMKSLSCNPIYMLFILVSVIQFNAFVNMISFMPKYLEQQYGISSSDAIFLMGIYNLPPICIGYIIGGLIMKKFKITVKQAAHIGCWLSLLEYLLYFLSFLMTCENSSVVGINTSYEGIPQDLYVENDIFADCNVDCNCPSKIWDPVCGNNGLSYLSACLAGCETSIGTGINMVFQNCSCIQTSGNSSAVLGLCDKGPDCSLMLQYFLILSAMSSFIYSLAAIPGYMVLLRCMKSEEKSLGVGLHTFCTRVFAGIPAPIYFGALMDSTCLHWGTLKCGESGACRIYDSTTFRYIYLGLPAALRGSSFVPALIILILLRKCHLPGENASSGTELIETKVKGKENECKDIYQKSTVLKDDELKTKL
The experiment in a line: Cellular uptake in OATP1A2-overexpressing HEK293 cells. Particulars: 0.2 µM, 2.5 min incubation, HEK293 OATP1A2, positive control. The class given is in vitro ADME. How it is done: (§1) HEK293 cells, vector-transfected or human (h)SLCO1A2, hSLCO1B1 or hSLCO1B3 cDNA-transfected were kind gifts from Prof. Werner Siegmund and Dr. Markus Keiser (University of Greifswald, Greifswald, Germany). All the HEK293 cell lines were maintained in DMEM supplemented with 10% (v/v) FBS, 1% penicillin–streptomycin mix at 37 °C in 5% (v/v) CO2 and 500 μg/mL G418. Cells were first seeded in 12-well plates [coated with 50 mg/L poly (l-lysine) and 50 mg/L poly (l-ornithine)] at a density of 1.0 × 10^5 cells/well. For the uptake study, in order to induce the expression of OATP transporters, the cell culture medium was replaced with culture medium supplemented with 5 mM sodium butyrate 24 h before performing the uptake assay.
(§2) The uptake transport study was performed as described previously. […] The Krebs–Henseleit solution was prepared from Krebs–Henseleit-buffer modified powder and supplemented with 25 mM NaHCO3 and 2.5 mM CaCl2 adjusted to pH 6.4 with 1 M HCL. At 2.5 min, the incubation buffer was removed, and uptake was terminated by adding 1 mL of ice-cold Krebs–Henseleit buffer, followed by two times washing with 1 mL of ice-cold Krebs–Henseleit buffer. […] The cellular protein amount was determined by the Bradford method using 10 μL of the cell lysates with bovine serum albumin as a standard.

Another data set has as its target T2, human OATP1B1 (Homo sapiens, UniProt Q9Y6L6).
T2 construct: Werner Siegmund and Dr. Markus Keiser (University of Greifswald); host or cells: HEK293
T2 sequence (Q9Y6L6 1-691): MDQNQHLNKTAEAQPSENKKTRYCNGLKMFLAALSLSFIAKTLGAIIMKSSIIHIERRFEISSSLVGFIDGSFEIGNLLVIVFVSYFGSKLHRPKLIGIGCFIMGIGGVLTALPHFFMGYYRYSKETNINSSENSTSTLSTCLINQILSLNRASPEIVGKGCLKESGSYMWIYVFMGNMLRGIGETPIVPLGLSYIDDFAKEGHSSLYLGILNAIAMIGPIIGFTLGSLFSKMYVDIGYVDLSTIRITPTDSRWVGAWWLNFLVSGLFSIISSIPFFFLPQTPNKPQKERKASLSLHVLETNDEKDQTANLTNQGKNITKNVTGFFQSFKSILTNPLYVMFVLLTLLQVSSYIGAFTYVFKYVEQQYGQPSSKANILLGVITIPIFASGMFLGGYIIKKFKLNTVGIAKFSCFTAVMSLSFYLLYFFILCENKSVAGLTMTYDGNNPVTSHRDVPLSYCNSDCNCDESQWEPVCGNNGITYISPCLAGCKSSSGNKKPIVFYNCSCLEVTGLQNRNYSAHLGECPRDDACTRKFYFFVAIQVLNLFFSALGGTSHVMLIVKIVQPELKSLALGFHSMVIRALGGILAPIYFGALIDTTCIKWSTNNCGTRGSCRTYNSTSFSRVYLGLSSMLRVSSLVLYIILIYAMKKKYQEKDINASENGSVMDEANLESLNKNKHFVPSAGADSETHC
The experiment in a line: Cellular uptake in OATP1B1-overexpressing HEK293 cells. Particulars: 0.2 µM, 2.5 min incubation, HEK293 OATP1B1, positive control. The class given is in vitro ADME. As for the experimental part:
as §1, §2

In another data set the target is T3, human OATP1B3 (Homo sapiens, UniProt Q9NPD5).
T3 construct: Werner Siegmund and Dr. Markus Keiser (University of Greifswald); host or cells: HEK293
T3 sequence (Q9NPD5 1-702): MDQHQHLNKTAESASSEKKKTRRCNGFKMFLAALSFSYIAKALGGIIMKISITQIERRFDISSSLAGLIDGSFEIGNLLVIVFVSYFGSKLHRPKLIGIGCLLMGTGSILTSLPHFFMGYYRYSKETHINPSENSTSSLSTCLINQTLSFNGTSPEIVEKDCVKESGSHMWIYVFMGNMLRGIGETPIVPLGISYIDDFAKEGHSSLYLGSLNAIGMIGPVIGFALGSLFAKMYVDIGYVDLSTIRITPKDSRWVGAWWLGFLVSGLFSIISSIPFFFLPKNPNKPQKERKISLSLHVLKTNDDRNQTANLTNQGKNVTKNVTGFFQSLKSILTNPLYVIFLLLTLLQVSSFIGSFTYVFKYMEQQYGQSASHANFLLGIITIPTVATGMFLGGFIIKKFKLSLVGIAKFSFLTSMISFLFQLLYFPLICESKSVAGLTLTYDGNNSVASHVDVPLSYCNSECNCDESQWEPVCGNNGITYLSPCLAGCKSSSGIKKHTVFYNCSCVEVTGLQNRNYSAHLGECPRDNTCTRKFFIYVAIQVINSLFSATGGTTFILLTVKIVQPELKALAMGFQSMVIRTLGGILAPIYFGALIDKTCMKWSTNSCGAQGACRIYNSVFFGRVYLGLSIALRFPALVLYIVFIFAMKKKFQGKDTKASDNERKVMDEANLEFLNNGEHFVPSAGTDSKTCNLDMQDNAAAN
Kind of data set: Cellular uptake in OATP1B3-overexpressing HEK293 cells. The class given is in vitro ADME. Particulars: 0.2 µM, 2.5 min incubation, HEK293 OATP1B3, positive control. As for the experimental part:
as §1, §2

On the set-up of data set [1]: method as in PMID 30253203. Particulars: oral brigatinib, Abcb1a/1b;Abcg2-/- mice; cited from earlier work.
For data set [2] the following is noted: oral, mice; cited from earlier work.

In the case of `CC(C)c1nc(N(C)S(C)(=O)=O)nc(-c2ccc(F)cc2)c1/C=C/[C@@H](O)C[C@@H](O)CC(=O)O` [Rosuvastatin], the “uptake compared to vector control cells” value at human OATP1A2, at human OATP1B1 and on human OATP1B3 was “efficiently taken up” throughout.

As for `COc1cc(N2CCC(N3CCN(C)CC3)CC2)ccc1Nc1ncc(Cl)c(Nc2ccccc2P(C)(C)=O)n1` [brigatinib], the acute toxicity entry in data set [1] was “severe and even lethal acute toxicity; also recorded: sometimes severe and lethal toxicity”.

With `COc1cc2c(cc1OC)CN(CCc1ccc(NC(=O)c3cccc4c(=O)c5cccc(OC)c5[nH]c34)cc1)CC2` [elacridar], the Tmax entry in data set [2] is listed as “about 4 h”.
